# Measurements as given in patent EP2681209B1, “COMPOUNDS AND METHODS FOR THE TREATMENT OF PAIN AND OTHER DISORDERS” (Aquilus Pharmaceuticals, Inc, priority 2011, dated 2012).
# “Also recorded” adds a separate entry of the source.
# Tests used:
# CD-1 mice = experiment: Naloxone-precipitated morphine withdrawal mouse study, intrathecal administration; type: in vivo; settings: i.t. 10 µl/mouse every 8 hours for 2.5 days with escalating IP morphine; naloxone 1 mg/kg s.c.; compared to control and vehicle
# From the text: One can measure the effects of intrathecal (i.t.) or intraparitoneal (i.p.) administration of a matrix metallorproteinase (MMP) inhibitor in a mouse model of morphine analgesia, tolerance and withdrawal. The purpose of which is to measure the effects of a MMP inhibitor on 1) attenuating morphine tolerance in mice and 2) withdrawal behavior in naloxone-precipitated morphine withdrawal in mice. The animal model which was developed in the 1960's and refined in the early 1970's utilizes the opioid antagonist, naloxone to rapidly block the µ-opioid receptor to "precipitate" withdrawal behavior in rodents (Zachariou, V. et al.; Essential role for RGS9 in opiate action, PNAS, 100(23), p 13656-13661, (2003)). […]
# Drug Administration & Morphine withdrawal Studies: The matrix metalloproteinase (MMP) inhibitors were dissolved in phosphate buffered saline (PBS) and dimethylsulfoxide (DMSO) and diluted in PBS (final concentration of DMSO for intrathecal administration was 10%). […] Two hours after the last morphine injection, naloxone (1 mg/kg) was administered s.c. Withdrawal behaviors were then monitored for 30 min, 1 hr after the naloxone injection. […]
# MMP inhibitor effects on morphine withdrawal For testing the morphine withdrawal-like behavioral signs following intrathecal MMP inhibitor administration, the withdrawal symptoms were monitored for 30 minutes 1-2 h after naloxone administration. […]
# [1] = In-vitro microsomal stability in human microsomes; type: in vitro ADME; settings: 1 µM compound, human microsomes 0.3 mg/mL
# Experimental: Human and mouse microsomal stability was determined for select compounds following the method of Houston (Houston, JB; Biochem. Pharmacol. 47, (1994),1469).
# 1 µM concentration of compound and seperate human and mouse microsomes (0.3 mg/mL, BD bioscience) were used in the in-vitro assay. To ensure proper energy supply for microsomal degradation of compound, an energy regenerating system comprised of 100 mM potassium phosphate, 2mM NADPH, 3mM MgCl2, pH = 7.4. and the microsomal protein is added to each sample and the resulting suspension is then incubated in duplicate for 60 min at 37° C. in a rotary shaker. A control is run for each test agent in duplicate omitting NADPH to detect NADPH-free degradation. At T=0 and T= 60 min., an aliquot is removed from each experimental and control reaction and then mixed with an equal volume of ice-cold Stop Solution (consisting of 0.3% acetic acid in acetonitrile containing haloperidol and diclofenac as internal standards). […] The samples are then centrifuged to remove precipitated protein, and the supernatants are then analyzed by LC-MS/MS to determine the percentage of compound remaining. […] After separation on a C18 reverse phase HPLC column (Agilent, Waters, or equivalent) using an acetonitrile-water gradient system, peaks were analyzed by mass spectrometry (MS) using ESI ionization in MRM mode.
# [2] = target: Catalytic domain of MMP-9 (human recombinant) (Homo sapiens, UniProt P14780); experiment: biochemical; settings: read-out: Average Percent Inhibition (MMP-9)
# Sequence of Catalytic domain of MMP-9 (human recombinant) (P14780 107-444 limits assumed): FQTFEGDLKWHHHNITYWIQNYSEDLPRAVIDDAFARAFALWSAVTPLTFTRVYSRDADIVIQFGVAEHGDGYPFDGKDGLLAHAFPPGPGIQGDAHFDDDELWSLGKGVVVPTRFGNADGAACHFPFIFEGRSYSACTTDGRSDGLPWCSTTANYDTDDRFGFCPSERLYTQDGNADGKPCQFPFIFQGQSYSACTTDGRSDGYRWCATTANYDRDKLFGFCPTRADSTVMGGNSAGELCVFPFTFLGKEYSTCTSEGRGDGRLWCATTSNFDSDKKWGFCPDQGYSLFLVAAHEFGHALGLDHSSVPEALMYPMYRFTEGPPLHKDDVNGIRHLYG
Mean Remaining Parent with NADPH (%) ([1]; 60 min at 37° C),"Mean Remaining Parent without NADPH (%) ([1]; control omitting NADPH, at T = 60 minutes)",inhibition at 1 µM [2],Compound,"morphine withdrawal behavior (behavioral signs, overall opiate withdrawal score) (CD-1 mice)"
–,–,–,"[2H]C([2H])([2H])c1ccc(C#Cc2ccc(S(=O)(=O)N[C@H](Cc3c[nH]c4ccccc34)C(=O)O)s2)cc1 [Compound 10, (R)-3-(1H-Indol-3-yl)-2-[5-(4-trideuteromethyl-phenylethynyl)-thiophene-2-sulfonylamino]-propionic acid-(D3, 98%)]",able to reduce overall morphine withdrawal behavior; also recorded: significantly attenuates behavioral signs of naloxone-precipitated morphine withdrawal
86%,89%,82%,"Cc1ccc(C#Cc2ccc(S(=O)(=O)N[C@H](Cc3c[nH]c4ccccc34)C(=O)O)s2)cc1 [Compound 5, (R)-3-(1H-Indol-3-yl)-2-(5-p-tolylethynyl-thiophene-2-sulfonylamino)-propionic acid]",–
